Reference: patent US11311560B2, “Cyclic plasmenylethanolamines” (MED-LIFE DISCOVERIES LP, priority 2017, dated 2022)
“Also recorded” adds a separate entry of the source.

Legend:
Pex7 hypomorphic animals = conditions: 50 mg/kg/day for 2 months; cited from earlier work
Pex7 null animals = conditions: very high doses (over 3000 mg/kg); cited from earlier work
[1] = system: Pex7 homozygous hypomorphic animals (Pex7^neo/neo); test: 2 week comparison of plasmalogen precursors: plasmalogen levels in plasma and liver (LC-MS); assay type: in vivo, mouse
Experimental: Pex7 homozygous hypomorphic animals (Pex7^neo/neo) were used as a model of rhizomelic chondrodysplasia punctata (RCDP). Mice were dosed with either PPI-1011 or PPI-1040 at equimolar concentrations of 100 mg/Kg and 89.7 mg/Kg respectively. PPI-1011 was formulated in Neobee M-5, at a concentration of 12.5 mg/mL and stored at −20° C. until the first treatment day after which point the remaining formulation was stored at 4° C. Oral gavage volumes were adjusted by mouse weight to ensure a 100 mg/kg dose. PPI-1040 was stored in a sealed ampoule in solution with dichloromethane under argon gas until immediately before use. At time of treatment the ampoule was opened and dichloromethane was evaporated off under nitrogen gas for 10 minutes. Neobee M-5 was then added and the solution and vortexed to generate a 22.4 mg/mL formulation. Animals were dosed via intraperitoneal injections with doses adjusted by weight to ensure an 89.7 mg/Kg dose to each animal. Animals were sacrificed 24 hours after the ninth treatment (week 1-Monday to Friday and week 2-Monday to Thursday). Blood samples were collected in EDTA tubes and then spun down in a clinical centrifuge. Plasma samples were stored at −80° C. until thawed for analysis. Tissue samples were harvested and flash frozen in liquid nitrogen and then stored at −80° C. All tissue samples were homogenized using liquid nitrogen, generating a fine powder.
Plasma aliquots of 20 μL were analyzed, while tissues were aliquoted with anti-static polypropylene disposable milligram scoops prior to analysis. Water (200 μL) was added and samples were ice bath sonicated for 30 mins prior to the addition of 600 μL of ethyl acetate. Samples were mixed at 2000 rpm for 15 mins followed by a 10 min centrifugation at 3500 rpm. Tissue samples were diluted into an ethyl acetate (1:4) containing labeled internal standards [^13C-PlsEtn (C37^13C6H74NO7P) and ^13C-PtdEtn (C24^13C19H74NO8P)]. Water (80 μL) was added and samples were again stirred at 2000 rpm for 15 mins followed by a 2 min centrifugation at 3500 rpm. High-throughput analysis method was based on multiple reaction monitoring of one parent/fragment transition for the ion pairs, performed using liquid chromatography-mass spectrometry.

Pex7 hypomorph/null mice [2] = test: 4 weeks oral treatment of Pex7 hypomorph/null animals: plasmalogen levels in plasma and tissues; assay type: in vivo, mouse; conditions: 50 mg/kg oral gavage, 5 days per week
Description: (§1) The Pex7 hypomorph/null model is a hypomorphic (B6;129S6-Pex7^tm2.3Brav/s9) mouse model on a mixed background (C57BL/6NCrl and 129S6/SvEvTac). The hypomorphic allele in Pex7 hypomorph/null was generated by inserting an inverse neo cassette into intron 2 and lox P sites surrounding exon 3. The Pex7 null allele was generated using (B6.C-Tg(cmv-cre)1Cgn/J) mouse. The Pex7 hypomorph/null mouse model has 90% survival, 0.016-0.257% of wild type Pex7 mRNA levels and 20-30% plasmalogen levels Pex7 hypomoprh/null mice (3-4 months); and wild-type animals, males and females included in treatments and behavioral tests. Pex7 hypomorph/null mice were randomly assigned, after a baseline open field test, into 3 treatment groups: PPI-1040, PPI-1011, and vehicle controls, n=6 mice per group). PPI-1011 or PPI-1040 at 50 mg/kg was given by oral gavage 5 days per week (Monday-Friday) for 4 weeks. During the treatment period, animals were weighed weekly and observed for signs of distress. The open field test was performed at the end of treatment. To avoid selection bias, data analysis was performed only at the study end. Animals were sacrificed after a 24-hour post the last dose.
Tissue samples frozen by submersion in liquid nitrogen were homogenized using the Covaris Cryoprep resulting in a fine powder. The powder was then aliquoted using anti-static polypropylene disposable milligram scoops (TWD Tradewinds) resulting in 4-6 mg of tissue per 1.4 ml Thermo matrix tubes. Weights were recorded and metabolite levels were normalized per mg of tissue. HPLC grade water (50 μl) was added into each tube and samples were snap frozen in liquid nitrogen and then stored at −80° C. until extraction. On the day of the extraction, tissue samples were thawed to room temperate and sonicated for 15 mins in an ice bath before mixing at 2000 rpm for a 5 minute and then adding 600 μL of ethyl acetate. Lipids were extracted into ethyl acetate by mixing at 1750 rpm for 1 hr followed by a 10 min centrifugation at 3500 rpm to obtain a clear ethyl acetate layer. Tissue lipid extracts were diluted into an ethyl acetate stock (brain regions diluted 1:10, peripheral tissues 1:5) containing labeled internal standard [^13C-PlsEtn (C37^13C6H74NO7P). Water (40 μL) was added to the diluted extracts and samples were stirred at 1500 rpm for 1 hr followed by a 2 min centrifugation at 3500 rpm.
Plasma extraction was performed on 20 μL aliquots in 1.4 ml Thermo matrix tubes. Lipids were extracted by adding HPLC grade water (50 μl) and ethyl acetate containing labeled internal standard [^13C-PlsEtn (C37^13C6H74NO7P) at 0.2 μg/mL (500 μL) to each plasma sample and then mixing at 1750 rpm for 1 hr followed by a 2 min centrifugation at 3500 rpm for phase separation.
A 100 μL aliquot of the ethyl acetate layer was analyzed using FI-MS/MS on a API4000™ mass spectrometer (Applied Biosystems) coupled with Agilent 1100 HPLC pump and auto sampler. Each transition was scanned for 50 ms with a total acquisition time per sample of 2 min. ethyl acetate:methanol:water ratio of 80:15:5 at a flow rate of 600 μL/min was used as the mobile phase. All standards and stable isotopes used were >95% pure and manufactured by Med-Life Discoveries LP. All the solvents used above were HPLC grade. All samples were analyzed in triplicate to control for any variation resulting from instrument variability. Stable isotope ratios for each analyte were calculated for all tissue and plasma samples (Table 2).

Pex7 hypomorph/null mice [3] = test: Open field test after 4 weeks oral treatment; assay type: in vivo, mouse; conditions: 50 mg/kg oral gavage, 5 days per week, 5 minutes test
Description: as §1
The open field test is a behavioral test used to evaluate the general locomotor activity, exploratory and anxiety-like behaviour of mice in response to a novel environment. The animal is placed inside a custom made square, gray acrylic box measuring 40×40×40 cm and allowed to move freely for 5 minutes while being recorded by an overhead camera (camera model). The footage was analyzed by an automated tracking system (Any-maze Video Tracking Software, Stoelting Co, Wood Dale, Ill., USA), for total distance traveled (meters) & activity (mobility in seconds) time. The total distance traveled is the total distance that animal traveled during the test and the activity measures the amount of time the animal was active during the test.

[4] = healthy animals; cited from earlier work
Pex7 hypomorphic mice = conditions: 13C-labeled version of PPI-1011; cited from earlier work
[5] = PPI-1011 100 mg/Kg oral or PPI-1040 89.7 mg/Kg intraperitoneal, 2 weeks

## CCCCCCCCCCCCCCCCCCOCC(O)CO (racemic) [Batyl alcohol, 1-O-octadecyl-rac glycerol]
Pex7 hypomorphic animals
  clinical improvement: not associated with clinical improvement
  plasmalogen content in red blood cells: partial increase
Pex7 null animals
  plasmalogen levels in brain and nervous system tissues: very limited increases
  plasmalogen levels in erythrocytes and peripheral tissues: augmentation of plasmalogen levels in erythrocytes and peripheral tissues

## CC/C=C\C/C=C\C/C=C\C/C=C\C/C=C\C/C=C\CCC(=O)OC(COCCCCCCCCCCCCCCCC)COC(=O)CCCC[C@@H]1CCSS1 (stereo partly shown) [PPI-1011, reference compound]
[1]; PPI-1011 100 mg/Kg oral gavage, 2 weeks (9 treatments)
  levels of the target plasmalogen (16:0/22:6) in the plasma: increase observed
[1]; [5]
  16:0 plasmalogen pool in liver: no increase in this pool was observed
  target plasmalogen (16:0/22:6) levels in liver: unable to augment levels to control levels
Pex7 hypomorph/null mice [2]
  liver plasmalogen levels: did not increase the levels of any plasmalogen species in the liver
  plasma plasmalogen levels (all species measured): did not result in significant augmentation of any plasmalogen species measured; also recorded: ineffective at augmenting plasmalogen levels; also recorded: significantly below baseline
  plasmalogen levels in tissues (peripheral and brain): did not increase the levels of any plasmalogen species in any of the tissues tested
Pex7 hypomorph/null mice [3]
  open field: time active: did not result in a decrease in activity levels
  open field: total distance traveled: did not result in a decrease in activity levels
[4]
  oral bioavailability: orally bioavailable
  plasma and tissue PlsEtn levels: capable of augmenting plasma and tissue PlsEtn levels
Pex7 hypomorphic mice
  incorporation of labeled plasmalogen into nervous system tissue: low
  incorporation of labeled plasmalogen into tissues: incorporated into peripheral tissues, as well as the neocortex and eye
